{"source": "patent US10729782B2", "about": "“Antibody-drug conjugate produced by binding through linker having hydrophilic structure” (DAIICHI SANKYO COMPANY, LIMITED, priority 2012, dated 2020)", "origin": "cited, not measured here", "key": {"topoisomerase I": {"target": "T1, topoisomerase I (Homo sapiens, UniProt P11387)", "T1 sequence (P11387 1-765)": "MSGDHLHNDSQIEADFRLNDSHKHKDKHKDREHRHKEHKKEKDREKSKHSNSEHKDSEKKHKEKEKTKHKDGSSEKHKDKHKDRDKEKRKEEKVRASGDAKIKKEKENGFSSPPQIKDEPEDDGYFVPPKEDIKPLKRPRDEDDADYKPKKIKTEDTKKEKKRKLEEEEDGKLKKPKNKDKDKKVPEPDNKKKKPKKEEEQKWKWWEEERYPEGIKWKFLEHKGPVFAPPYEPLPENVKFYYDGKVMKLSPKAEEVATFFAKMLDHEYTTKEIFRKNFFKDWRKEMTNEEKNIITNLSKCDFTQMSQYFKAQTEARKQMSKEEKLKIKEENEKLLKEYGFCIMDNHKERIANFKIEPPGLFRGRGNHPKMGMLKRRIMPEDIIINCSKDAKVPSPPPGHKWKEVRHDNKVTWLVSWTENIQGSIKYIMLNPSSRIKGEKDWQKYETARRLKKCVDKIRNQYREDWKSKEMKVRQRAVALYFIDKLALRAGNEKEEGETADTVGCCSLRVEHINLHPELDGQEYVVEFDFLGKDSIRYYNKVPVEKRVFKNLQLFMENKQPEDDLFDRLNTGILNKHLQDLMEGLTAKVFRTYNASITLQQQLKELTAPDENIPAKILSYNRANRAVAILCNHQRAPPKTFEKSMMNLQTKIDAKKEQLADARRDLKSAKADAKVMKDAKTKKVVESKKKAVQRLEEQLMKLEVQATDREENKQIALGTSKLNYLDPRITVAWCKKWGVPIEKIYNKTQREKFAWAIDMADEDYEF", "conditions": "compared with SN-38 and topotecan; cited from earlier work"}, "various cancer cells": {"test_system": "various cancer cells", "conditions": "against various cancer cells, compared with SN-38 and topotecan; cited from earlier work"}, "[1]": {"test_system": "human tumor subcutaneously transplanted mouse model", "conditions": "cited from earlier work"}}, "data": [{"smiles": "CC[C@@]1(O)C(=O)OCc2c1cc1n(c2=O)Cc2c-1nc1cc(F)c(C)c3c1c2[C@@H](N)CC3", "note": "[exatecan, (1S,9S)-1-amino-9-ethyl-5-fluoro-2,3-dihydro-9-hydroxy-4-methyl-1H,12H-benzo[de]pyrano[3′,4′:6,7]indolizino[1,2-b]quinolin-10,13(9H,15H)-dione]", "values": [{"measurement": "inhibitory activity on topoisomerase I", "setting": "topoisomerase I", "result": "higher than SN-38"}, {"measurement": "in vitro cytocidal activity", "setting": "various cancer cells", "result": "higher in vitro cytocidal activity"}, {"measurement": "antitumor effect", "setting": "[1]", "result": "potent antitumor effect"}]}]}
